Measured values as given in patent publication US20250059231A1, “Protease inhibitors” (priority 2021, published 2025).
Counter-ions that a name gives are not always drawn. Like-named read-outs stand apart in the source and are kept apart here. Where a SMILES comes first, the peptide text is derived from it. [ ]: non-standard residue; d: D form. The star is where a group is joined. Phe(4-guanidino) = N=C(N)Nc1ccc(C[C@H](N)C(=O)O)cc1; Benzoyl(4-Ph) = O=C(c1ccc(-c2ccccc2)cc1)*; Palmitoyl = CCCCCCCCCCCCCCCC(=O)*; NHhexadecyl = CCCCCCCCCCCCCCCCN*; 3Pal = N[C@@H](Cc1cccnc1)C(=O)O; 4Pal = N[C@@H](Cc1ccncc1)C(=O)O; X2 = O=C(c1ccc(-c2cccs2)s1)*; β3hK = NCCCC[C@H](N)CC(=O)O; X1 = FC(F)(F)c1ccc(CN*)cc1; Pip = O=C(O)[C@@H]1CCCCN1; Octanoyl = CCCCCCCC(=O)*; NHOctyl = CCCCCCCCN*; Propionyl = CCC(=O)*; X3 = COc1cccc(CN*)c1; NHPr = CCCN*

Target: T1, DENV protease (Dengue virus type 2, UniProt P29990)
T1 construct: The virus-encoded dengue protease comprises the amino-terminal 180 amino acids of NS3 (NS3pro) of the polyprotein
Test: biochemical
Conditions: read-out: inhibition of DENV
Experimental: Dilutions were made starting from 10 mM stock solutions in DMSO and final concentrations were measured in triplicates. The inhibitors were preincubated for 15 min with DENV protease (100 nM) in the assay buffer (50 mM Tris-HCl pH 9.0, ethylene glycol (10% v/v), and 0.0016% Brij 58). The enzymatic reaction was initiated by the addition of the FRET substrate (final concentration 50 μM) to obtain a final assay volume of 100 μL per well. The enzymatic activity was monitored for 15 min and determined as a slope of relative fluorescence units per second (RFU/s) for each concentration. The mean of the triplicates were plotted against the corresponding concentration in CDDVault to determine the IC50-values. Analogous procedures were used to determine the inhibitory potency on WNV (Kühl et al., J. Med. Chem. 2020, 63 (15): 8179-8197) and ZIKA protease (Nitsche et al., ACS Med. Chem. Lett. 2019 Feb. 14; 10 (2): 168-174). For selectivity screening of active candidates, similar biochemical assays with human serine proteases trypsin (Weigel et al., J. Med. Chem. 2015, 58 (19), 7719-7733.) and/or thrombin (Nitsche et al., J. Med. Chem. 2013, 56 (21), 8389-8403) were used.

T1 sequence (P29990 1398-1437): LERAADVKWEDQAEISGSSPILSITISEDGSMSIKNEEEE
T1 sequence (P29990 1476-1653): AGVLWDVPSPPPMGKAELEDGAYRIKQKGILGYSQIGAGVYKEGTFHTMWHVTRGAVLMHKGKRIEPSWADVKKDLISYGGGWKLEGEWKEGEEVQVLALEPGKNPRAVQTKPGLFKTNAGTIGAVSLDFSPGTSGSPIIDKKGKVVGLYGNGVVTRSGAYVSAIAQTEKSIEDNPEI

| SMILES | inhibition at 50 µM (at 50 μM) | inhibition at 50 µM |
| --- | --- | --- |
| CCCCCCCCCCCCCCCC(=O)N[C@@H](CCCCN)C(=O)N1CCC[C@H]1C(=O)N[C@@H](C)C(=O)N[C@@H](CCCCN)c1nnc(C)o1 [compound 1] | ≥ 25% |  |
| CCCCCCCCCCCCCCCC(=O)N[C@@H](CCCCN)C(=O)N[C@@H](C)C(=O)N[C@@H](C)C(=O)N[C@H](CCCCN)c1nnc(C)o1 [compound 2] | ≥ 25% |  |
| CCCCCCCCCCCCCCCC(=O)N[C@@H](CCCCN)C(=O)N[C@@H](C)C(=O)N[C@@H](C)C(=O)N[C@H](CCc1ccccc1)c1nnc(C)o1 [compound 3] | ≥ 25% |  |
| CCCCCCCCCCCCCCCC(=O)N[C@@H](CCCCN)C(=O)N1CCC[C@H]1C(=O)N[C@@H](C)C(=O)N[C@@H](CCc1ccccc1)c1nnc(C)o1 [compound 4] | ≥ 25% |  |
| CCCCCCCCCCCCCCCC(=O)N[C@@H](C)C(=O)N1C[C@@H](Oc2ccncc2)C[C@H]1C(=O)N[C@@H](C)C(=O)N[C@@H](CCCCN)C(N)=O [compound 7] | ≥ 25% |  |
| CCCCCCCCCCCCCCCC(=O)N[C@@H](CCCCN)C(=O)N1CCC[C@H]1C(=O)N[C@@H](Cc1cnc[nH]1)C(=O)N[C@@H](CCCCN)C(N)=O [compound 12] (Palmitoyl-KPHK-NH2) | ≥ 25% |  |
| CCCCCCCCCCCCCCCC(=O)N[C@@H](CCCCN)C(=O)N1CCCC[C@H]1C(=O)N[C@@H](Cc1cnc[nH]1)C(=O)N[C@@H](CCCCN)C(N)=O [compound 14] (Palmitoyl-K[Pip]HK-NH2) | ≥ 25% |  |
| CCCCCCCCCCCCCCCC(=O)N[C@@H](CCCCN)C(=O)N1CCCC[C@H]1C(=O)N[C@@H](C)C(=O)N[C@@H](CCCCN)C(N)=O [compound 15] (Palmitoyl-K[Pip]AK-NH2) | ≥ 25% |  |
| CCCCCCCCNC(=O)[C@H](CCCCN)NC(=O)[C@H](CCCCN)NC(=O)[C@H](CCCCN)NC(=O)[C@H](CC(C)C)NC(=O)CCCCCCC [compound 19] (Octanoyl-LKKK-NHOctyl) | ≥ 25% |  |
| CCCNC(=O)[C@H](CCCCN)NC(=O)[C@H](CCCCN)NC(=O)[C@H](CCCCN)NC(=O)[C@H](C)NC(=O)CC [compound 21] (Propionyl-AKKK-NHPr) | ≥ 25% |  |
| CCCNC(=O)[C@H](CCCCN)NC(=O)[C@H](CCCCN)NC(=O)[C@H](CCCCN)NC(=O)[C@H](Cc1ccccc1)NC(=O)CC [compound 23] (Propionyl-FKKK-NHPr) | ≥ 25% |  |
| CCCCCCCCNC(=O)[C@H](CCCCN)NC(=O)[C@H](C)NC(=O)[C@H](CCCCN)NC(=O)[C@H](CC(C)C)NC(=O)CCCCCCC [compound 25] (Octanoyl-LKAK-NHOctyl) | ≥ 25% |  |
| CCCCCCCCNC(=O)[C@H](CCCCN)NC(=O)[C@H](CCCNC(=N)N)NC(=O)[C@H](C)NC(=O)[C@H](CCCNC(=N)N)NC(=O)CCCCCCC [compound 29] (Octanoyl-RARK-NHOctyl) | ≥ 25% |  |
| CCCCCCCCCCCCCCCCNC(=O)[C@H](CCCCN)NC(=O)[C@H](CCC(N)=O)NC(=O)[C@H](CCCNC(=N)N)NC(=O)[C@H](C)N [compound 32] (H-ARQK-NHhexadecyl) | ≥ 25% |  |
| COc1cccc(CNC(=O)[C@H](CCCCN)NC(=O)[C@H](CCC(N)=O)NC(=O)[C@H](CCCNC(=N)N)NC(=O)[C@H](C)NC(=O)c2ccc(-c3cccs3)s2)c1 [compound 36] (X2-ARQK-X3) | ≥ 25% |  |
| C[C@H](NC(=O)c1ccc(-c2ccccc2)cc1)C(=O)N[C@@H](CCCNC(=N)N)C(=O)N[C@@H](CCC(N)=O)C(=O)N[C@@H](CCCCN)C(N)=O [compound 37] ({Benzoyl(4-Ph)}-ARQK-NH2) | ≥ 25% |  |
| C[C@H](NC(=O)c1ccc(-c2ccccc2)cc1)C(=O)N[C@@H](CCCNC(=N)N)C(=O)N[C@@H](CCC(N)=O)C(=O)N[C@@H](CCCCN)C(=O)NCc1ccc(C(F)(F)F)cc1 [compound 38] ({Benzoyl(4-Ph)}-ARQK-X1) | ≥ 25% |  |
| CCCCCCCCCCCCCCCC(=O)N[C@@H](CCCNC(=N)N)C(=O)N[C@@H](CCC(N)=O)C(=O)N[C@@H](CCCCN)C(N)=O [compound 40] (Palmitoyl-Arg-Gln-Lys-NH2) | ≥ 25% |  |
| CCCCCCCCCCCCCCCC(=O)N[C@@H](CCCNC(=N)N)C(=O)N[C@@H](CCC(N)=O)C(=O)N[C@@H](CCCCN)C(=O)c1ccccc1 [compound 42] | ≥ 25% |  |
| CCCCCCCCCCCCCCCC(=O)N[C@@H](CCCNC(=N)N)C(=O)N[C@@H](CCC(N)=O)C(=O)N[C@@H](Cc1ccccc1)C(=O)O [compound 45] (Palmitoyl-Arg-Gln-Phe-OH) | ≥ 25% |  |
| CCCCCCCCCCCCCCCC(=O)N[C@@H](Cc1c[nH]cn1)C(=O)N[C@@H](CCC(N)=O)C(=O)N[C@@H](Cc1ccccc1)C(N)=O [compound 52] (Palmitoyl-His-Gln-Phe-NH2) | ≥ 25% |  |

| SMILES | inhibition at 50 µM (at 50 μM) | inhibition at 50 µM |
| --- | --- | --- |
| CCCCCCCCCCCCCCCC(=O)N[C@@H](CCc1c[nH]c(N)n1)C(=O)N[C@@H](CCC(N)=O)C(=O)N[C@@H](Cc1ccccc1)C(N)=O [compound 55, (S)—N1—((S)-1-amino-1-oxo-3-phenylpropan-2-yl)-2-((S)-4-(2-amino-1H-imidazol-4-yl)-2-palmitamidobutanamido)pentanediamide TFA salt] |  | ≥ 25% |
| CCCCCCCCCCCCCCCC(=O)N[C@@H](CCCc1c[nH]c(N)n1)C(=O)N[C@@H](CCC(N)=O)C(=O)N[C@@H](Cc1ccccc1)C(N)=O [compound 56] | ≥ 25% |  |
| CCCCCCCCCCCCCCCC(=O)N[C@@H](CCc1ccncc1)C(=O)N[C@@H](CCC(N)=O)C(=O)N[C@@H](Cc1ccccc1)C(N)=O [compound 57] | ≥ 25% |  |
| CCCCCCCCCCCCCCCC(=O)N[C@@H](CCc1c[nH]cn1)C(=O)N[C@@H](CCC(N)=O)C(=O)N[C@@H](Cc1ccccc1)C(N)=O [compound 59] | ≥ 25% |  |
| CCCCCCCCCCCCCCCC(=O)N[C@@H](CCCNC(=N)N)C(=O)N[C@@H](CCC(N)=O)C(=O)N[C@@H](Cc1ccccc1)B(O)O [compound 60] | ≥ 25% |  |
| CC(=O)N[C@@H](C)C(=O)N[C@@H](CCCNC(=N)N)C(=O)N[C@@H](CCC(N)=O)C(=O)N[C@@H](Cc1ccccc1)B(O)O [compound 61] | ≥ 25% |  |
| CCCCCCCCCCCCCCCC(=O)N[C@@H](Cc1c[nH]c(N)n1)C(=O)N[C@@H](CCC(N)=O)C(=O)N[C@@H](Cc1ccccc1)C(N)=O [compound 62] | ≥ 25% |  |
| CCCCCCCCCCCCCCCC(=O)N[C@@H](Cc1ccncc1)C(=O)N[C@@H](CCC(N)=O)C(=O)N[C@@H](Cc1ccccc1)C(N)=O [compound 63] (Palmitoyl-[4Pal]-Gln-Phe-NH2) | ≥ 25% |  |
| CCCCCCCCCCCCCCCC(=O)N[C@@H](Cc1cccnc1)C(=O)N[C@@H](CCC(N)=O)C(=O)N[C@@H](Cc1ccccc1)C(N)=O [compound 64] (Palmitoyl-[3Pal]-Gln-Phe-NH2) | ≥ 25% |  |
| CCCCCCCCCCCCCCCC(=O)N[C@@H](CCCNc1ncc[nH]1)C(=O)N[C@@H](CCC(N)=O)C(=O)N[C@@H](Cc1ccccc1)C(N)=O [compound 65] | ≥ 25% |  |
| CCCCCCCCCCCCCCCC(=O)N[C@@H](CCNc1ncc[nH]1)C(=O)N[C@@H](CCC(N)=O)C(=O)N[C@@H](Cc1ccccc1)C(N)=O [compound 66] | ≥ 25% |  |
| CCCCCCCCCCCCCCCC(=O)N[C@@H](Cc1cccc(NC(=N)N)c1)C(=O)N[C@@H](CCC(N)=O)C(=O)N[C@@H](Cc1ccccc1)C(N)=O [compound 67] | ≥ 25% |  |
| CCCCCCCCCCCCCCCC(=O)N[C@@H](Cc1ccc(NC(=N)N)cc1)C(=O)N[C@@H](CCC(N)=O)C(=O)N[C@@H](Cc1ccccc1)C(N)=O [compound 68] (Palmitoyl-[Phe(4-guanidino)]-Gln-Phe-NH2) | ≥ 25% |  |
| CCCCCCCCCCCCCCCC(=O)N[C@@H](C)CC(=O)N[C@@H](CCCNC(=N)N)C(=O)N[C@@H](CCC(N)=O)CC(=O)N[C@@H](CCCCN)C(N)=O [compound 72] | ≥ 25% |  |
| C[C@H](NC(=O)[C@H](CCCCN)NC(=O)c1ccc(-c2ccccc2)cc1)C(=O)N[C@@H](CCCCN)CC(=O)NCc1ccc(C(F)(F)F)cc1 [compound 78] |  | ≥ 25% |
| CCCCCCCCCCCCCCCC(=O)N[C@@H](CCCCN)CC(=O)N[C@@H](C)C(=O)N[C@@H](C)C(=O)N[C@@H](CCCCN)C(N)=O [compound 82] (Palmitoyl-[β3hK]AAK-NH2) | ≥ 25% |  |
| CCCCCCCCCCCCCCCCNC(=O)[C@H](CCCCN)NC(=O)C[C@H](C)NC(=O)[C@H](C)NC(=O)C[C@@H](N)CCCCN [compound 83] | ≥ 25% |  |
| C[C@H](NC(=O)[C@H](C)NC(=O)[C@H](CCCCN)NC(=O)c1ccc(-c2ccccc2)cc1)C(=O)N[C@@H](CCCCN)C(=O)NCc1ccc(C(F)(F)F)cc1 [compound 89] ({Benzoyl(4-Ph)}-KAAK-X1) | ≥ 25% |  |
| CCCCCCCCCCCCCCCC(=O)N[C@@H](CCCCN)CC(=O)N[C@@H](C)C(=O)N[C@@H](C)CC(=O)N[C@H](CCc1ccccc1)C(N)=O [compound 91] | ≥ 25% |  |
| CCCCCCCCCCCCCCCC(=O)N[C@@H](CCCCN)C(=O)N[C@@H](C)C(=O)N[C@@H](C)C(=O)N[C@H](Cc1c[nH]c2ccccc12)C(N)=O [compound 93] (Palmitoyl-KAA[dW]-NH2) | ≥ 25% |  |
| CCCCCCCCCCCCCCCC(=O)N[C@@H](CCCCN)C(=O)N[C@@H](C)C(=O)N[C@@H](CCCCN)C(N)=O [compound 97] (Palmitoyl-Lys-Ala-Lys-NH2) | ≥ 25% |  |
